These results are taken from PMC9503535, “Inositol Derivatives with Anti-Inflammatory Activity from Leaves of Solanum capsicoides Allioni” (Molecules, 2022).

Data set [1] concerns NO production in LPS-stimulated BV2 cells. The data set can be described thus: Inhibition of NO production in LPS-stimulated BV2 cells (Griess reaction). It is filed as cell-based. The settings on record: read-out: Inhibitory effects on NO in LPS-induced BV-2, IC50. As to the method:
BV2 microglial cells were cultured in DMEM containing 10% fetal bovine serum, 100 IU/mL penicillin, and 100 μg/mL streptomycin at 37 ℃ with 5% CO2. Then, the cells were placed in 96-well microplates and treated with different compounds at 1–8 concentrations (5, 10, 30, 50, 100, 200 μM) for 1 h. Next, the cells were treated with 1 μg/mL LPS for 24 h to detect the NO (nitric oxide) levels in culture supernatants. After the Griess reaction (incubated at 37 ℃ with 5% CO2 for 0.5 h), the absorbance of cells was measured with a microplate reader (BioTek Company, Winooski, VT, USA) at […], repeated three times, and its IC50 value was calculated.

A short description of data set [2]: Cytotoxicity on BV2 cells, CCK8 method. Type of data set: cell-based. The settings on record: mouse, BV2 microglial cells, CCK8, 24 h treatment, 5-200 μM, read-out: Cytotoxic activities IC50. As to the method:
The cytotoxicity assay was performed with a modified CCK8 method. First, BV2 microglial cells were cultured with 96-well microplates (10^4 cells/well in […] medium) for 24 h. Then, the cells were treated with different concentrations (5, 10, 30, 50, 100, 200 μM) of compounds. After the cells were incubated for 24 h, added 10 μL CCK8 solution to each well and incubated for 2 h in a 5% CO2 humidifier at 37 ℃. The absorbance was recorded at 450 nm with a microplate reader (BioTek Company, Winooski, VT, USA), repeating three times, and its IC50 value was calculated.
(Tetrazolium dyes change colour on reduction, which living cells bring about.)

Where [3] appears, read: Mus musculus, BV-2, compound 1 h then 1 μg/mL LPS 24 h.

In general, IC50 refers to the point on the concentration scale where inhibition reaches its midpoint.

Each structure is given as a SMILES string. Where two headings read alike, the source gives them in different places.

Consider `CCC(C)C(=O)O[C@@H]1[C@H](O)[C@@H](O)[C@H](O)[C@@H](OC(=O)C(C)CC)[C@@H]1OC(C)=O` (relative stereo) [Compound 7, myoinositol-1,3-(2-methylbutyrate)-2-acetate], for which the IC50 in data set [1] (setting [3]) was 14.5 ± 1.22 µM. Besides, in data set [2], the IC50 at 24 h is above 100 µM. For `CCC(C)C(=O)O[C@@H]1[C@@H](OC(=O)C(C)CC)[C@H](O)[C@@H](O)[C@H](O)[C@@H]1OC(=O)C(C)CC` (relative stereo) [Compound 8, myoinositol-2,3,6-(2-methylbutyrate)], the IC50 in data set [1] (setting [3]) stood at 31 ± 0.92 µM. Further, the IC50 at 24 h in data set [2] was above 100 µM.

Turning to `CCC(C)C(=O)O[C@@H]1[C@@H](O)[C@H](O)[C@H](OC(=O)C(C)CC)[C@H](OC(=O)C(C)CC)[C@H]1O` (relative stereo) [Compound 5, myoinositol-2,3,6-(2-methylbutyrate)], the IC50 in data set [1] (setting [3]) amounted to 11.2 ± 0.14 µM. Also, the IC50 at 24 h in data set [2] was above 100 µM.

In the case of `CCC(C)C(=O)O[C@H]1[C@@H](OC(=O)C(C)CC)[C@H](OC(C)=O)[C@@H](O)[C@H](OC(=O)C(C)CC)[C@H]1OC(C)=O` (relative stereo) [Compound 3, myoinositol-1,4-acetate-2,3,5-(2-methylbutyrate)], the IC50 in data set [1] (setting [3]) was above 100 µM. Besides, the IC50 at 24 h in data set [2] is above 100 µM.

With `CNC(=N)NCCC[C@H](N)C(=O)O` [NMMA, reference compound], in data set [1] (compound 1 h then 1 μg/mL LPS 24 h), the IC50 worked out at 1.67 ± 0.24 µM. Regarding `CCC(C)C(=O)O[C@@H]1[C@H](OC(=O)C(C)CC)[C@@H](O)[C@H](O)[C@@H](O)[C@@H]1OC(C)=O` (relative stereo) [Compound 6, myoinositol-2,3-(2-methylbutyrate)-4-acetate], the IC50 in data set [1] (setting [3]) stood at 23.3 ± 0.74 µM. In data set [2], the IC50 at 24 h was above 100 µM.

Take `CCC(C)C(=O)O[C@H]1[C@@H](OC(=O)C(C)CC)[C@H](OC(=O)C(C)CC)[C@@H](O)[C@H](OC(=O)C(C)C)[C@H]1OC(C)=O` (relative stereo) [Compound 4, myoinositol-1,2,3-(2-methylbutyrate)-4-acetate-5-isobutyryloxy]: in data set [1] (setting [3]), the IC50 is above 100 µM. Also, the IC50 at 24 h in data set [2] was above 100 µM. For the compound `CCC(C)C(=O)O[C@@H]1[C@H](OC(=O)C(C)C)[C@@H](OC(=O)C(C)C)[C@H](O)[C@@H](O)[C@@H]1OC(C)=O` (relative stereo) [Compound 2, myoinositol-1,2-isobutyryloxy-3-(2-methylbutyrate)-4-acetate], the IC50 in data set [1] (setting [3]) was 31.7 ± 2.71 µM. Besides, the IC50 at 24 h in data set [2] is above 100 µM. The matching figures for `CCC(C)C(=O)O[C@@H]1[C@H](OC(C)=O)[C@@H](OC(=O)C(C)CC)[C@H](O)[C@@H](O)[C@@H]1OC(=O)C(C)C` (relative stereo) [Compound 1, myoinositol-1,3-(2-methylbutyrate)-2-acetate-4-isobutyryloxy]: 24.3 ± 1.82 µM and above 100 µM.
